Laboratory results as given in PMC12165062, “High‐Throughput Fluorescence Screening Enables Globally Consistent Identification of ABA Signaling Modulators” (Advanced Science, 2025).
Like-named read-outs stand apart in the source and are kept apart here.

Key:
[1] = molecular target: T1, PYR-HAB1 (PYR1 with HAB1) (Arabidopsis thaliana, UniProt O49686); experiment: Ser/Thr phosphatase assay (Promega), HAB1 inhibition via PYR1; type: biochemical
T1 construct: HAB1 construct not described in main text; with Protein phosphatase 2C 16
T1 sequence (O49686 1-191): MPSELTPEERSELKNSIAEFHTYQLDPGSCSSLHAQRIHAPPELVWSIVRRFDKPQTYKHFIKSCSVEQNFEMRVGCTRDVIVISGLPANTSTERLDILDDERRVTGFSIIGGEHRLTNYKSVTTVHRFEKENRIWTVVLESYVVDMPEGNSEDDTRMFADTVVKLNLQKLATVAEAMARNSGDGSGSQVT
T1 sequence (Q9CAJ0 1-511 partner): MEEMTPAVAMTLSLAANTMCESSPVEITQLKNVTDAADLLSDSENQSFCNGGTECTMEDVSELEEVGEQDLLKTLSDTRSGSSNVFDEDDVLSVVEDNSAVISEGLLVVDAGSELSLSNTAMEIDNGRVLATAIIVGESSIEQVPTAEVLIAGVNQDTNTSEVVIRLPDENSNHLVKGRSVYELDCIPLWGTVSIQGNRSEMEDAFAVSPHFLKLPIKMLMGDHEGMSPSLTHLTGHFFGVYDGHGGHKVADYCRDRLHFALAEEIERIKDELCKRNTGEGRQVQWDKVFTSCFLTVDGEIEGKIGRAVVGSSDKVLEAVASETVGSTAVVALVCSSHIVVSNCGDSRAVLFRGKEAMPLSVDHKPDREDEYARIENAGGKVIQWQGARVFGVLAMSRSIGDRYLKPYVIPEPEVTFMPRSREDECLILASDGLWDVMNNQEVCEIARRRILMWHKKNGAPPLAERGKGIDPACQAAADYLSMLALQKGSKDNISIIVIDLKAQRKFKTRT

PYR1 [2] = molecular target: T2, PYR1 (Arabidopsis thaliana, UniProt O49686); experiment: biochemical; set-up: Isothermal titration calorimetry of compound binding to PYR1; conditions: read-out: ITC/Kd/μM
T2 sequence (O49686 1-191): T1 sequence (O49686 1-191)
Protocol: (§1) To validate the practicality of GhitFluors platform for global high‐throughput identification of ABA receptor modulators, we used this platform to analyze a library comprising several hundreds‐amide compounds. First, we evaluated K d values of several hundreds amide‐compounds using fluorescence competition assays. […] Meanwhile, binding affinities of the six compounds to PYR1 were evaluated using ITC or BLI assays to validate the screening results. […] As depicted in Figure 4a, a significant decrease in fluorescence intensity was observed as the concentration of diopyridin increased, ranging from 30 to 350 µM. When the concentration of diopyridin reached 350 µM, fluorescence intensity was close to the threshold. […] In addition, we also tested the binding affinities of diopyridin with other representative PYLs, including dimer (PYL1, PYL2), and monomer (PYL4, PYL5, and PYL10‐PYL12) that had K d values ranging from 0.97 to 32.8 µM, and 1.6 to 243.7 µM, respectively (Figure S20, Supporting Information).

PYR1 [3] = molecular target: T2, PYR1; experiment: biochemical; set-up: Fluorescence competition displacing lebactin (1 uM) from PYR1 (8 uM); Kd from double-log titration fit; conditions: 1 uM lebactin, 8 uM PYR1; read-out: F(GhitFluors)/Kd/μM
Source text: as §1, with “Validation of the Fluorescent Chemosensor‐Based Screening Platform In‐house Chemical Database Screening Assay To” for “To”

PYR1 [4] = molecular target: T2, PYR1; experiment: biochemical; set-up: Bio-layer interferometry of compound binding to PYR1; conditions: read-out: BLI/Kd/μM
Protocol: To validate the practicality of GhitFluors platform for global high‐throughput identification of ABA receptor modulators, we used this platform to analyze a library comprising several hundreds‐amide compounds. First, we evaluated K d values of several hundreds amide‐compounds using fluorescence competition assays. […] Meanwhile, binding affinities of the six compounds to PYR1 were evaluated using ITC or BLI assays to validate the screening results. […] As depicted in Figure 4a, a significant decrease in fluorescence intensity was observed as the concentration of diopyridin increased, ranging from 30 to 350 µM. When the concentration of diopyridin reached 350 µM, fluorescence intensity was close to the threshold. […] It should have a low fluorescence background, high fluorescence shift and stability, and appropriate binding affinity, as these determine the accuracy, feasibility and, the sensitivity of this platform, respectively. […] First, we evaluated the fluorescence background of all chemosensors by using 310–370 nm as excitation wavelength. […] In addition, the binding affinity of compound 1a (lebactin) for PYR1 was evaluated by bio‐layer interferometry (BLI). […]

COc1ccc(C(=O)Nc2cccc3c2C(=O)N(C2CCC(=O)NC2=O)C3=O)cc1OC (centres unmarked) [173b, diopyridin]
inhibition at 50 µM [1]: > 80%

Cc1ccccc1S(=O)(=O)Nc1c([N+](=O)[O-])cc(Br)cc1[N+](=O)[O-] [368a, N-(4-bromo-2,6-dinitrophenyl)-2-methylbenzenesulfonamide]
Kd (PYR1 [2]): 14.9 ± 3.29 µM | Kd (PYR1 [3]): 4.73 ± 0.37 µM

O=[N+]([O-])c1cc(Br)cc([N+](=O)[O-])c1NS(=O)(=O)c1cccc(F)c1 [260a, N-(4-bromo-2,6-dinitrophenyl)-3-fluorobenzenesulfonamide]
Kd (PYR1 [2]): 7.59 ± 1.62 µM | Kd (PYR1 [3]): 3.96 ± 0.4 µM

O=[N+]([O-])c1cc(Br)cc([N+](=O)[O-])c1NS(=O)(=O)c1ccccc1Cl [470a, N-(4-bromo-2,6-dinitrophenyl)-2-chlorobenzenesulfonamide]
Kd (PYR1 [2]): 9.51 ± 2.19 µM | Kd (PYR1 [3]): 8.43 ± 0.75 µM

O=[N+]([O-])c1cc(Br)cc([N+](=O)[O-])c1NS(=O)(=O)c1cccc(Cl)c1 [361a, N-(4-bromo-2,6-dinitrophenyl)-3-chlorobenzenesulfonamide]
Kd (PYR1 [2]): 7.06 ± 1.92 µM | Kd (PYR1 [3]): 8.25 ± 0.25 µM

CC(C)(C)c1ccc(S(=O)(=O)Nc2c([N+](=O)[O-])cc(Br)cc2[N+](=O)[O-])cc1 [145a, N-(4-bromo-2,6-dinitrophenyl)-4-(tert-butyl)benzenesulfonamide]
Kd (PYR1 [2]): 171 ± 3.76 µM | Kd (PYR1 [3]): 37.8 ± 1.31 µM

COc1ccc(C(=O)Nc2cccc3c2C(=O)N(C2CCC(=O)NC2=O)C3=O)cc1OC (centres unmarked) [173b, N-(2(2,6-dioxopiperidin-3-yl)-1,3-dioxoisoindolin-4-yl)-3,4-dimethoxybenzamide]
Kd (PYR1 [3]): 1.55 ± 0.11 µM | Kd (PYR1 [4]): 9.5 ± 0.75 µM

CC1=CC(=O)CC(C)(C)[C@@]1(O)/C=C/C(C)=C\C(=O)O [ABA]
inhibition at 25 µM [1]: > 80%
